The structures appear in SMILES notation. Some results are limits rather than exact numbers.

In series [1] the test system is K/BxN serum induced arthritis in C57/BL6 mice. The series is described as follows: K/BxN serum transfer arthritis, incidence of severe arthritis. Type of series: in vivo. Conditions: K/BxN serum i.p. days 0 and 2; 8 days study period; N=6; drug alone.
Protocol: Six week-old C57/BL6 mice were purchased from Charles River and left for one week for acclimatization before starting the experiment.
Arthritis was induced with two i.p. injections of 100 μl K/BxN serum on days 0 and 2 (for details see J Immunol 2015; 194:3381-3388).
Methotrexate and Veh2 (12.5% carbonate) were administered on days 3, 5 and 7 by i.p. injection (injected volume: 200 μl).
Preparation of methotrexate formulation: A small volume of 0.1M carbonate-bicarbonate buffer pH=9.6 was used to dissolve methotrexate (Sigma Cat no: A6770). Then, PBS was used to reach the desired concentration. […] Diluted compound was divided in single-use aliquots and stored at −20° C. until use.
The development of arthritis was monitored daily from day 0 to day 8.
Mice were sacrificed on day 8 after recording the daily measurements.
Visible signs of arthritis were assessed using the scoring method as described in Am J Pathol, 2014; 184(8):2333-41 consisting on assigning a score of 0-3 per paw, reaching a maximum of 12 per mouse: • Score 0: no signs of inflammation. • Score 1: subtle inflammation, localized. • Score 2: easily identified but localized. • Score 3: evident inflammation, not localized. […]
The incidence of severe arthritis was calculated as the % of mice in each group that reached a total score of 10.
Series [2] in a line: Phase I Part IV: 14-day repeated dose pharmacokinetics, oral suspension. Type of series: in vivo, human (healthy volunteers). The protocol: FIG. 3: Plasma concentration following repeated oral dosing of test compound in healthy volunteers. […] Dose levels of test compound 1: 50, 100, 200 mg. Consecutive plasma samples were collected following the last day of dosing (day 14) and concentration in plasma determined by LCMS-MS. N=9 per dose level. Mean+/−SD per group.

Series [3] in a line: Phase I Part I: single ascending oral dose pharmacokinetics (oral suspension). Type of series: in vivo, human (healthy volunteers). The protocol: FIG. 2: Plasma concentration following single oral dosing of test compound in healthy volunteers. […] Dose levels of test compound: 100, 200, 400, 600 or 800 mg. Consecutive plasma samples were collected and concentration in plasma determined by LCMS-MS. N=6 per dose level. Mean per group.

The nature of series [4]: Phase I Part III: 14-day repeated dose pharmacokinetics, tablets. Type of series: in vivo, human (healthy volunteers). Conditions: tablets 100 mg daily (Group 1).
Description: (§1) Fourteen days repeated dosing was initiated using a tablet formulation (Part III) and was completed (Part IV) using the suspension for oral administration.
A total of 111 subjects were randomized; 104 young healthy male volunteers and eight (8) post-menopausal women.
Series [5] is described as follows: Phase I Part IV: 14-day repeated dose safety, oral suspension.
Protocol: A Part IV was added to the study that was identical to Study Part III but conducted with the oral suspension in fasting conditions.
The dose levels tested were 50 mg, 100 mg or 200 mg with matching placebo (See FIG. 3).
The nature of series [6]: Phase I Part I: single ascending oral dose safety.
Description: as §1
The two first male groups were composed of 3 subjects receiving active and one subject placebo; the other groups consisted of 6 subjects receiving active IMP and two subjects receiving placebo. Forty-eight (48) healthy male volunteers aged 19 to 39 years and eight (8) healthy postmenopausal female volunteers, aged 47 to 60 years were included.
Series [7] is described as follows: Phase I Part II: comparative bioavailability tablet vs. oral suspension. Type of series: in vivo, human (healthy volunteers). Conditions: 200 mg as two 100 mg tablets vs. 200 mg oral suspension, three-way cross-over.
The target of series [8] is MC1R (Homo sapiens, UniProt Q01726). The conditions noted are these: WO 2007/141343; cited from earlier work.
Chain of MC1R (Homo sapiens, UniProt Q01726) (Q01726 whole entry, species assumed): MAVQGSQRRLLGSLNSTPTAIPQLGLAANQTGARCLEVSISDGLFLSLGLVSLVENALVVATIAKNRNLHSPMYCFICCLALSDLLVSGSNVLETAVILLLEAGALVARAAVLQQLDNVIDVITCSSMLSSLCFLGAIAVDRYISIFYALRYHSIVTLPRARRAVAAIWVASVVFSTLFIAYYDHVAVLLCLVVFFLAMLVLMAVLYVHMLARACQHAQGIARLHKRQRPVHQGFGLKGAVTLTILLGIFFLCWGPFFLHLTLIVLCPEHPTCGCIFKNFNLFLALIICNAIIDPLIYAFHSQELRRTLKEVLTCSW
In series [9] the test system is MC1R. The conditions noted are these: cited from earlier work.
The subject of another series is MC3R. Conditions: induces ERK1/2-phosphorylation and Ca2+ mobilization; cited from earlier work. Background: Calcium flux is commonly read through the fluorescence of an indicator in the cells.
Where [10] appears, read: female post-menopausal subjects, single 400 mg oral suspension.
The mark [11] stands for this setting: 50, 100 or 200 mg once daily for 14 days.

Regarding `CN(Cc1cnc2nc(N)nc(N)c2n1)c1ccc(C(=O)N[C@@H](CCC(=O)O)C(=O)O)cc1` [methotrexate, reference compound], the “incidence of severe arthritis (% of mice in each group that reached a total score of 10)” value in [1] was determined as 50%.

With `CC(=O)O.N=C(N)N/N=C/C=C/c1cccn1-c1ccccc1[N+](=O)[O-]` [AP1189], in series [2] (50 mg once daily oral suspension), the “day steady state achieved” value came to 7 days. For the same compound, the “peak increase compared to cohort 1 (50 mg)” value in [2] (100 mg once daily oral suspension) was “approximately 2 fold”. In addition, in series [2] (male, human, plasma, oral, 200 mg once daily, steady conditions, read-out: C Max (mean +/− SD, N = 9)), the Cmax was found to be 893 ± 198 ng/mL. For the same compound, in series [3] (setting [10]), the “Cmax and AUCs compared to male subjects” value is “slightly increased”; the apparent clearance stood at 17.26 L/h; the “apparent volume of distribution compared to male subjects” value is reported as “similar”. In series [3] (male subjects, single oral suspension, dose range 50-800 mg, fasting), the “inter-individual variability for Cmax and AUCs” value is listed as less than 36%. The “exposure at the maximum administrated dose (MAD) above expected exposure level for therapeutic efficacy” value in series [3] (single oral dose, MAD) is “more than 10 ×”. Moreover, in series [4], the “bioavailability within and between subjects” value was “high and unpredicted degree of bioavailability both within and between subjects”; the “exposure judged on Cmax, span” value is “from below the limit of quantification (BLQ) up to levels expected to be more than three times the exposure expected to induce therapeutic effects”. In addition, in series [5] (setting [11]), the “QTcF in repeated standard 12 lead safety ECG” value is listed as “No individual QTcF clinically significant values” and the “severe AEs / serious AEs” value is “No severe AEs nor serious AEs”. Further, the “subjects treated with active with isolated increases in aminotransferases” value in series [5] (Cohort 3, 200 mg once daily for 14 days) is 3 subjects. Besides, the “TEAEs considered possibly related to the study treatment” value in series [5] (once daily for 14 days, 2 at 50 mg, 2 at 200 mg, gastrointestinal disorders) was 4 events. Besides, the MTD result in series [5] (up to 200 mg once daily for 14 days) is listed as “not reached”. For the same compound, in series [6] (continuous 24-hours 1000 HZ Holter ECG recording, single dose), the “QTcF and other cardiac parameters” value is “No AP1189 associated increases in QTcF”. Moreover, in series [6] (male subjects, single dose 400, 600 or 800 mg), the “increase in aminotransferases, above the normal upper value of ALT” value was “up to 1.6”. For the same compound, the “subjects with isolated increases in aminotransferases” value in [6] (male subjects, single dose (1 at 400 mg, 2 at 600 mg, 1 at 800 mg)) worked out at 4 subjects. For the same compound, in [6] (single oral dose 15-800 mg), the “severe AEs / serious AEs” value was “No severe AEs nor serious AEs” and the “treatment-related changes in vital signs” value was “No treatment-related changes in vital signs”. The “maximum tolerated dose (MTD)” value in series [6] (single oral dose up to 800 mg) was “not reached”. Also, the “exposure of tablet compared to oral suspension” value in series [7] is “lower exposure with higher variability”. On MC1R [8], the “binding to MC1R” value is “shown to bind the MC1R”. In addition, the “incidence of severe arthritis (% of mice in each group that reached a total score of 10)” value in [1] is 50%. In addition, the “activity at receptor MC1R” value in the series on MC1R [9] (induces ERK1/2-phosphorylation and Ca2+ mobilization) is on record as “biased dual agonist”. For the same compound, the “canonical cAMP generation” value in the series on MC1R [9] (receptors MC1R and MC3R, hence no MC1R-induced melanogenesis) is reported as “does not provoke canonical cAMP generation”. Moreover, the “activity at receptor MC3R” value in the series with MC3R was “biased dual agonist”.

Source of the values: patent US12303489B2, “Combination treatment of arthritic disease” (SYNACT PHARMA APS, priority 2019, dated 2025).
